From paper PMC5719074, “Electrostatic Map Of Proteasome α-Rings Encodes The Design of Allosteric Porphyrin-Based Inhibitors Able To Affect 20S Conformation By Cooperative Binding” (Scientific Reports, 2017)
pIC50: −log10 of the molar value.

Key:
[1] = molecular target: human 20S proteasome T-L activity; conditions: read-out: IC50 T-L; 2 nM 20S, 30 min at 37°C, 100 µM substrate
human 20S proteasome = test system: T1, human 20S proteasome; parameters: method as in PMID 22642538; conditions: cited from earlier work
T1 construct: purchased Boston Biochem (Cambridge, MA, USA)

[2] = molecular target: human 20S proteasome ChT-L activity; conditions: read-out: IC50 ChT-L; 2 nM 20S, 30 min at 37°C, 100 µM substrate
[3] = molecular target: human 20S proteasome PGPH-L activity; conditions: read-out: IC50 PGPH-L; 2 nM 20S, 30 min at 37°C, 100 µM substrate
α-3ΔN yeast mutant 20S = assay: Steady-state kinetic analysis (Lineweaver-Burk), Suc-LLVY-AMC; format: biochemical; conditions: yeast mutant α-3ΔN (open conformation)
Text: (§1) Proteasome activity assay.
(§2) Latent Core Particles (CP).
(§3) in a 384 multiwell black plate.
(§4) The IC50 is defined as the
(§5) double-reciprocal Lineweaver-Burk plot
(§6) squares. […] The goodness of fit was
(§7) [Etot ] = KI ⋅ 1 + 1 (S3a)
(§8) or an un-competitive inhibition equation:
(§9) [Etot ] = Km ⋅ 1 + KI (S3b)
(§10) or else a mixed inhibition equation: […]
(§11) different affinity for the two forms.
(§12) Cooperativity for Porphyrin Binding.
(§13) be described by Eq. (1b) 2 where Pc

[4] = test system: wild-type yeast 20S proteasome; assay: as above; format: biochemical
Text: as §1, §2, §3, §4, §5, §6, §7, §8, §9, §10, §11, §12, §13

[5] = test system: α-3ΔN mutant of yeast 20S proteasome; assay: UV stopped-flow binding kinetics; conditions: simple bimolecular binding, 37 °C
Text: (§14) The analysis of kinetic progress curves, employing Eq. (S8), allows to obtain the values of k obs at different porphyrin concentrations, which can be exploited, for a classical bimolecular behavior, to obtain the association and dissociation rate constants according to Eq. (1a)1a kobs=kon⋅[Porph]+koff […]
(§15) Therefore, the classical bimolecular behavior, as from Eq. (1a), has been modified accordingly:1b kobs=(kc⋅Pc/Ptot+ko⋅Po/Ptot)⋅[Porph]+koff where k c and k o are the porphyrin binding rate constants to the 20S proteasome in the “closed” and in the “open” conformation, respectively, k off is the dissociation rate constant of the porphyrin, P c and P o are the relative percentage of the two conformations (“closed” and “open”, respectively) as a function of porphyrin concentration, as from Eqs. (S4–S7) (see SI). […]
(§16) Cooperativity for Porphyrin Binding. In the presence of (at least) two states (i.e., “open” and […]
(§17) corresponds to the population of “closed” 20S as a function of porphyrin concentration (with Kc being the porphyrin equilibrium binding constant for this conformation) and Po […]
(§18) Refers to the population of “open” 20S as a function of porphyrin concentration, Ko being the equilibrium porphyrin binding constant and L is the conformationa l equilibrium between the two states in the absence of porphyrins, as from Eq. (S6)

[6] = test system: wild-type yeast 20S proteasome; assay: UV stopped-flow binding kinetics; conditions: first cluster, 37 °C
Text: as §14, §15, §16, §17, §18

Structure (SMILES) | pIC50 [1] | inhibition mechanism (human 20S proteasome) | pIC50 [2] | pIC50 [3] | inhibition mechanism (α-3ΔN yeast mutant 20S) | inhibition mechanism [4] | ko, binding rate constant [5] [M⁻¹ s⁻¹] | L, open/closed conformational equilibrium in the absence of porphyrins [6] | kc, binding rate constant, closed conformation [6] [M⁻¹ s⁻¹] | ko, binding rate constant, open conformation [6] [M⁻¹ s⁻¹]
C[n+]1ccc(-c2c3nc(c(-c4cc[n+](C)cc4)c4ccc([nH]4)c(-c4cc[n+](C)cc4)c4nc(c(-c5cc[n+](C)cc5)c5ccc2[nH]5)C=C4)C=C3)cc1 [compound 1, meso-tetrakis(4-N-methylpyridyl) porphyrin] | 6.19 | competitive and reversible inhibitor | 6.41 | 6.85 | – | – | – | – | – | –
C[n+]1ccc(-c2ccc(-c3c4nc(c(-c5ccc(-c6cc[n+](C)cc6)cc5)c5ccc([nH]5)c(-c5ccc(-c6cc[n+](C)cc6)cc5)c5nc(c(-c6ccc(-c7cc[n+](C)cc7)cc6)c6ccc3[nH]6)C=C5)C=C4)cc2)cc1 [compound 2, meso-tetrakis(4-N-methylphenylpyridyl)-porphyrin] | – | – | – | – | competitive inhibitor | almost pure non-competitive | 2.5e+06 | 4.0 × 10^−6 | 130 | 7e+06
